Experiments:
Format in all cases: biochemical
JAK3 = molecular target: T1, JAK3 (Homo sapiens, UniProt P52333); experiment: Test for in vitro activity of JAK3 kinase (LANCE Ultra ULight-JAK-1 peptide); conditions: selectivity ratio JAK3 versus JAK2; class symbol
T1 construct: purchased Life technology
T1 sequence (P52333 1-1124): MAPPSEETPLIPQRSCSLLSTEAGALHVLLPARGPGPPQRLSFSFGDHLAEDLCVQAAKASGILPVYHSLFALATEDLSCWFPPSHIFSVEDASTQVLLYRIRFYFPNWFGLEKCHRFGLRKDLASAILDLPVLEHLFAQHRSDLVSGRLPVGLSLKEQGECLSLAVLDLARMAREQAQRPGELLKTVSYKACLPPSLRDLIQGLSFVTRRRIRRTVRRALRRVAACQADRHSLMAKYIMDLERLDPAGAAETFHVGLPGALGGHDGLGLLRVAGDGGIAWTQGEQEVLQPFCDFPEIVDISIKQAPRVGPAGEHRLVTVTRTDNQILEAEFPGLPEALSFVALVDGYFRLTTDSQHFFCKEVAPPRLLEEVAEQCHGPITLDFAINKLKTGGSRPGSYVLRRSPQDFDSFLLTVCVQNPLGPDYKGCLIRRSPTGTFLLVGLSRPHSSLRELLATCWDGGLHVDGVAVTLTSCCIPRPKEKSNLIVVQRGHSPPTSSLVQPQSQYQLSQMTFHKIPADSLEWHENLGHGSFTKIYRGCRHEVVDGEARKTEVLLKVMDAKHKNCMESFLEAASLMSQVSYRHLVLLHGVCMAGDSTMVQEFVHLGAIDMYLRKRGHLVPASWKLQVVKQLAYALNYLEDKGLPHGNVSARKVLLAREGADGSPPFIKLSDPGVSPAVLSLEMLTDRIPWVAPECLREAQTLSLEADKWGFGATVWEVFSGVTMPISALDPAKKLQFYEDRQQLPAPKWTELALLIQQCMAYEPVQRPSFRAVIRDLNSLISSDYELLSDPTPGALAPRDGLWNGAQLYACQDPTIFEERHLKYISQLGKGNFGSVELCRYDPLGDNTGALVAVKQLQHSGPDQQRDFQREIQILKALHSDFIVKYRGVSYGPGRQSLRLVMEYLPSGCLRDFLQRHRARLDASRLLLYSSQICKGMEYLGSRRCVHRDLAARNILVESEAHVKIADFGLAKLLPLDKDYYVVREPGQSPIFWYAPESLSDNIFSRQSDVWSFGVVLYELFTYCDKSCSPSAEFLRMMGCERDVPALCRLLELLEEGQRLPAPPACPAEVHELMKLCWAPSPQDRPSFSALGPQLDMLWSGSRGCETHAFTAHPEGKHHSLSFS
Method: (§1) Test for In Vitro Activity of Jak1, Jak2, and Jak3 Kinase
(§2) Recombinant human […] of JAK1, JAK2 and JAK3 were purchased from Life technology. LANCE Ultra ULight™-JAK-1 (Tyr1023) peptide and LANCE Eu-W1024 Anti-phosphotyrosine (PT66) were purchased from PerkinElmer. Multimode ELISA, Envison(PerkinElmer) reader was used.
0.05 nM of JAK3 Protein kinase, 50 nM of LANCE Ultra ULight™-JAK-1(Tyr1023) peptide, 4 uM of ATP, 50 mM of HEPES (pH 7.5), 10 mM of MgCl2, 1 mM of EGTA, 2 mM of DTT, 0.01% BRIJ-35. […] The reaction was carried out at room temperature for 90 min and the reaction system was 10 ul.
(§3) Determination for Reaction
(§4) 10 ul detection reagent was added to reaction plate, wherein the final concentration of LANCE Eu-W1024 Anti-phosphotyrosine (PT66) was 2 nM, the final concentration of EDTA was […], incubated at room temperature for 60 min, with Envison reader.
(§5) The reading was converted to inhibition ratio (%) by the following formula: the inhibition ratio (%)=([…])/(Max−Min)×100%.

JAK1 = molecular target: T2, JAK1 (Homo sapiens, UniProt P23458); experiment: Test for in vitro activity of JAK1 kinase (LANCE Ultra ULight-JAK-1 peptide); conditions: selectivity ratio JAK1 versus JAK2; class symbol
T2 construct: purchased Life technology
Method: as §1, §2
The reaction was carried out at room temperature for 90 min and the reaction system was 10 ul.
as §3, §4, §5

JAK2 = molecular target: T3, JAK2 (Homo sapiens, UniProt O60674); experiment: Test for in vitro activity of JAK2 kinase (LANCE Ultra ULight-JAK-1 peptide); conditions: recombinant human JAK2, 12 uM ATP, 60 min; class symbol
T3 construct: purchased Life technology
Method: as §1, §2
The reaction was carried out at room temperature for 60 min and the reaction system was 10 ul.
as §3, §4, §5

T2 sequence (P23458 whole entry): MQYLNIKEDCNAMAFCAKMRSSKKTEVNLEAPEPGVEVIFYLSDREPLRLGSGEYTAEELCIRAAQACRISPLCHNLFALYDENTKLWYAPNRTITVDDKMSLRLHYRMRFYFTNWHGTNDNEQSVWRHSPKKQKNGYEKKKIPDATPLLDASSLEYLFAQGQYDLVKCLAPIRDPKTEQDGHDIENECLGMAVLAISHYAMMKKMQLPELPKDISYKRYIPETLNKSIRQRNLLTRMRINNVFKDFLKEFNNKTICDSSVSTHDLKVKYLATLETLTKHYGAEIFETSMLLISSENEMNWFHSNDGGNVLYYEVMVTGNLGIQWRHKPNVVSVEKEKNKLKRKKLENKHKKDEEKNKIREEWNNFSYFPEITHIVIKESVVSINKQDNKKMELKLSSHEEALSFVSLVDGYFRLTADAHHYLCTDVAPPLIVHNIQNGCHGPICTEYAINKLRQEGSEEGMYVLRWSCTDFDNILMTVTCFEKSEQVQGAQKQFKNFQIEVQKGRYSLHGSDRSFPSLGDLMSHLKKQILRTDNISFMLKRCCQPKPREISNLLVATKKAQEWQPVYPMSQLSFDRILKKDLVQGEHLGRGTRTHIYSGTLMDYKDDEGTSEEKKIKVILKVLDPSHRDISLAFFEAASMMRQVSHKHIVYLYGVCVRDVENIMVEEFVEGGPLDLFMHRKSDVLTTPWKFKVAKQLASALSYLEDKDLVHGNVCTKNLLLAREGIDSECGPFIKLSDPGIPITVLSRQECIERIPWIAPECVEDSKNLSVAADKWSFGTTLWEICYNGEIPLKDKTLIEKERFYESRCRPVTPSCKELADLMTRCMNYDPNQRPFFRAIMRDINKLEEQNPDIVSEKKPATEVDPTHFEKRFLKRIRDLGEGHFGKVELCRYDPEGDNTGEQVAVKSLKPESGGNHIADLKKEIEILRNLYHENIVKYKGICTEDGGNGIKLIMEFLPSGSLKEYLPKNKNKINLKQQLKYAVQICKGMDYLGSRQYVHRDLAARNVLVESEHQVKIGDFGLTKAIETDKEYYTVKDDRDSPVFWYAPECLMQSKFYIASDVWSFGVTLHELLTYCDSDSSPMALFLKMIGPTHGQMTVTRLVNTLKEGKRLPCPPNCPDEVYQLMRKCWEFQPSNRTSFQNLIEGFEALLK
T3 sequence (O60674 whole entry): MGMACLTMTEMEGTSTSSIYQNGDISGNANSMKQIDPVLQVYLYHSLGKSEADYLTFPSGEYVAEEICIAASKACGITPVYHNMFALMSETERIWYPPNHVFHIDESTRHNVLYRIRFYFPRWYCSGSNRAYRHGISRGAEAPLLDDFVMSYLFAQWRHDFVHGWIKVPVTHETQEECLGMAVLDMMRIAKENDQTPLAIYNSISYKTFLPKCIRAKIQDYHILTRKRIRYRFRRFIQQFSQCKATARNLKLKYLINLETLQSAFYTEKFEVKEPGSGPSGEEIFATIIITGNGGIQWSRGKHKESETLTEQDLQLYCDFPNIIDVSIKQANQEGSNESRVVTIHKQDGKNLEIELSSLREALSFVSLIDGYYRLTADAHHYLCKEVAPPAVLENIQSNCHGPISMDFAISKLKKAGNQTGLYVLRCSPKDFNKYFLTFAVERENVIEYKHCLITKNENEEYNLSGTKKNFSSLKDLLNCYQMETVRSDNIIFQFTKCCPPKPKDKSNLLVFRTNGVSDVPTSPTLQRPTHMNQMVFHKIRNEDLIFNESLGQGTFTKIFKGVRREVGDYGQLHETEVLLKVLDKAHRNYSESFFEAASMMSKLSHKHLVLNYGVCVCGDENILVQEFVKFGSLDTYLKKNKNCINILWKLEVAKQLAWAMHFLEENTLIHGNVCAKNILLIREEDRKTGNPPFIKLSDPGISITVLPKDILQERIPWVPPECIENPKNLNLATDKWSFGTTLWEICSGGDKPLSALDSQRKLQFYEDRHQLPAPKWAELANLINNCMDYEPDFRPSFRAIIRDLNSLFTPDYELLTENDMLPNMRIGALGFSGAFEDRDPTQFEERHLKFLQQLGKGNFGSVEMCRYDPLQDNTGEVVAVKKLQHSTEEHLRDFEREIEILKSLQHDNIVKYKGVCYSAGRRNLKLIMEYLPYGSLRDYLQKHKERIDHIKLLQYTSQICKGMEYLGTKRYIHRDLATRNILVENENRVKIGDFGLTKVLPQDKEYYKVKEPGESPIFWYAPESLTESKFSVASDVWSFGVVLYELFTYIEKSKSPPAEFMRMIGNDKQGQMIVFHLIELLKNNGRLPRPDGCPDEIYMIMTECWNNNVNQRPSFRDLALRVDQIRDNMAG

Question: For CCS(=O)(=O)N1CC(CC#N)(n2cc(-c3nccn4nc(NC(=O)C5CC5)nc34)cn2)C1 [WX31, N-[8-[1-[3-(cyanomethyl)-1-ethylsulfonylazetidin-3-yl]pyrazole-4-yl)-[1,2,4]triazolo[1,5-a]pyrazine-2-yl] cyclopropanecarboxamide], which “JAK3/JAK2 (times)” value (JAK3) is on record?
Answer: The value was “F3 (10 < F3 ≤ 25)”.

Question: What about the “JAK1/JAK2 (times)” value (JAK1) of the same compound?
Answer: Its value is “F2 (5 < F2 ≤ 10)”.

Question: What about the IC50 (JAK2) of the same compound?
Answer: Its IC50 is 100 to 1000 nM.

Question: For N#CCC1(n2cc(-c3nccc4nc(NC(=O)C5CC(F)(F)C5)nn34)cn2)CN(S(=O)(=O)C(F)(F)F)C1 [WX32, N-[5-[1-[3-(cyanomethyl)-1-(trifluoromethylsulfonyl)azetidin-3-yl]pyrazole-4-yl]-[1,2,4]triazolo[1,5-c]pyrimidin-2-yl]-3,3-difluoro-cyclobutanecarboxamide], which “JAK3/JAK2 (times)” value (JAK3) is on record?
Answer: The value was “F3 (10 < F3 ≤ 25)”.

Question: What about the “JAK1/JAK2 (times)” value (JAK1) of the same compound?
Answer: The value was “F2 (5 < F2 ≤ 10)”.

Question: And the IC50 (JAK2)?
Answer: The IC50 was 100 to 1000 nM.

Question: Which “JAK3/JAK2 (times)” value (JAK3) does the source give for CN(C)Cc1cc(C(=O)N2CCC(N3CC(CC#N)(n4cc(-c5cccc6nc(NC(=O)C7CC7)nn56)cn4)C3)CC2)nc(C(F)(F)F)n1 [WX33] here?
Answer: Its value is “F3 (10 < F3 ≤ 25)”.

Question: And the “JAK1/JAK2 (times)” value (JAK1)?
Answer: Its value is “F1 (1 ≤ F1 ≤ 5)”.

Question: And the IC50 (JAK2)?
Answer: Its IC50 is 10 to 100 nM.

Question: Which “JAK3/JAK2 (times)” value (JAK3) does the source give for “N-(5-(1-(3-(cyanomethyl)-1-((methylsulfonyl)azetidine-3-yl)-1H-pyrazole-4-yl)-[1,2,4]triazolo[1,5-c]pyridin-2-yl)-2-methoxyacetamide [WX25]” here?
Answer: Its value is “F2 (5 < F2 ≤ 10)”.

Question: What about the “JAK1/JAK2 (times)” value (JAK1) of the same compound?
Answer: Its value is “F3 (10 < F3 ≤ 25)”.

Question: What about the IC50 (JAK2) of the same compound?
Answer: Its IC50 is 100 to 1000 nM.

Reference: patent US10174036B2, “Substituted pyrazoles as JAK inhibitors” (WUXI FORTUNE PHARMACEUTICAL CO., LTD, priority 2015, dated 2019)
